Results from patent US20080234262A1 (Wyeth, priority 2007, published 2008).

Experiments:
PI3K = PI3K (Homo sapiens, UniProt P42336); experiment: Fluorescence polarization assay for PI3K; format: biochemical; settings: PI3Kα; read-out: PI3Kα IC50;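 further: PI3K kinase reaction on PIP2 with ATP, 30-60 min, product sensed by GST-GRP with red probe in fluorescence polarization (mP), controls without enzyme and at zero time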
breast line MDA468 = experiment: In vitro cell culture growth assay (MTS), MDA468; format: cell-based, human; settings: MDA468 cells, three days after drug treatment
Outline: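 MDA468 or LNCap cells received inhibitors one day after plating and were grown for three days. Viable cell density read by MTS conversion, absorbance 490 nm, expressed as percent of control growth versus vehicle-treated cells on the same plate.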

prostate line LNCap = experiment: In vitro cell culture growth assay (MTS), LNCap; format: cell-based, human; settings: LNCap cells, three days after drug treatment

Chain of PI3K (P42336 whole entry): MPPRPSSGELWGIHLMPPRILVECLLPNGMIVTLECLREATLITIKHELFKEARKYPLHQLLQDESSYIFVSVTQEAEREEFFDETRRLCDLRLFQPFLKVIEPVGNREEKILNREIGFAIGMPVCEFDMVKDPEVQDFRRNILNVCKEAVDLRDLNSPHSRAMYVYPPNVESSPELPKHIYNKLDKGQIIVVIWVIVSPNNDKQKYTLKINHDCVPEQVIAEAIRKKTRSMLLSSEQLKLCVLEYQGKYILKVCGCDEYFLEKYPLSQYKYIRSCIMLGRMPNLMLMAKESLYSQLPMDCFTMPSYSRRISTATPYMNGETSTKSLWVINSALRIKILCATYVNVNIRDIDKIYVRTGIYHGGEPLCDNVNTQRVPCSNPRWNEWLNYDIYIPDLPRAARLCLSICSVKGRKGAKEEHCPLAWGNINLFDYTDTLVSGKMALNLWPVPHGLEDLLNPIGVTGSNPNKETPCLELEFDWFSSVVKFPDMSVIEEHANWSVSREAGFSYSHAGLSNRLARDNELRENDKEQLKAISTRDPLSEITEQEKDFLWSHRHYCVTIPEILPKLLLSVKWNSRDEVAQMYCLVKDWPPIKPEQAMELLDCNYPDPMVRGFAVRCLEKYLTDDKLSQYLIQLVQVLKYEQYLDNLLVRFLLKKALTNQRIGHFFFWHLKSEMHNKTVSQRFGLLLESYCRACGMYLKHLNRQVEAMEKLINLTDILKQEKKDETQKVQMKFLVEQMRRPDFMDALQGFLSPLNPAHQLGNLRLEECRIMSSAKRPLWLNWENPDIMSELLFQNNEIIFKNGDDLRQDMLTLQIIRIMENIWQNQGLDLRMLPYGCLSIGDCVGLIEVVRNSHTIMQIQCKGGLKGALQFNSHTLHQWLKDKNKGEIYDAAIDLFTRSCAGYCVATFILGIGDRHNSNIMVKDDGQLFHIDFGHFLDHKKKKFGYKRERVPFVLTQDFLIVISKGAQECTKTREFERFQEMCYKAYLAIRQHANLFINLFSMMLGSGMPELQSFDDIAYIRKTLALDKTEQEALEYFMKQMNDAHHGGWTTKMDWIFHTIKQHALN
Chain of PI3K (P27986 whole entry partner): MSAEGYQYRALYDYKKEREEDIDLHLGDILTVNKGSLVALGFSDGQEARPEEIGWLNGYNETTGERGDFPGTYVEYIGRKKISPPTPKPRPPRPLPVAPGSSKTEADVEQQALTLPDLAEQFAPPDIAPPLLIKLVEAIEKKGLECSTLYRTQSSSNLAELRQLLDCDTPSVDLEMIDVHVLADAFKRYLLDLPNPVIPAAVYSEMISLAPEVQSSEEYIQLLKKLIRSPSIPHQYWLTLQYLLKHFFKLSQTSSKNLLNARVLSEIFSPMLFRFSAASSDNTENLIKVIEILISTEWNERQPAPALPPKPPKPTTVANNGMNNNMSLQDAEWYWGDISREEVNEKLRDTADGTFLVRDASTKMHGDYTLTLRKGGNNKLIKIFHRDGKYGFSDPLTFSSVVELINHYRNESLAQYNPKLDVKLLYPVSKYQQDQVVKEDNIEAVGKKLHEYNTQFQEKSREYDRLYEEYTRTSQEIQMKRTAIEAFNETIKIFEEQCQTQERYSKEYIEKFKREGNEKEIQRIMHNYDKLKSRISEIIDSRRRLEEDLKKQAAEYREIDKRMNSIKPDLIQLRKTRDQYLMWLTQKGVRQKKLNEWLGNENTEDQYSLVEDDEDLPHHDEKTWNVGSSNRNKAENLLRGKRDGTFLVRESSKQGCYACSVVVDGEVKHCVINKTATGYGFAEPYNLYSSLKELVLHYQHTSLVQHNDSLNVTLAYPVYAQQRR

SMILES	IC50 (PI3K)	IC50 (prostate line LNCap; Homo sapiens, LNCaP, 72 h)	IC50 (prostate line LNCap)	IC50 (breast line MDA468; Homo sapiens, 72 h)	IC50 (breast line MDA468)
COC(=O)Nc1ccc(-c2nc(N3CCOCC3)c3cnn(C4CCN(CC(F)(F)F)CC4)c3n2)cc1 [Compound 781, methyl (4-{4-morpholin-4-yl-1-[1-(2,2,2-trifluoroethyl)piperidin-4-yl]-1H-pyrazolo[3,4-d]pyrimidin-6-yl}phenyl)carbamate]	1740 nM	1800 nM	–	7900 nM	–
CNC(=O)Nc1ccc(-c2nc(N3CCOCC3)c3cnn(C4CCN(C(=O)c5ccccc5OC)CC4)c3n2)cc1 [Example 365, 1-(4-{1-[1-(2-methoxybenzoyl)piperidin-4-yl]-4-morpholin-4-yl-1H-pyrazolo[3,4-d]pyrimidin-6-yl}phenyl)-3-methylurea]	82 nM	27 nM	–	300 nM	–
CCOC(=O)CN1CCC(n2ncc3c(N4CCOCC4)nc(-c4ccc(NC(=O)NC)cc4)nc32)CC1 [Compound 795, ethyl [4-(6-{4-[(methylcarbamoyl)amino]phenyl}-4-morpholin-4-yl-1H-pyrazolo[3,4-d]pyrimidin-1-yl)piperidin-1-yl]acetate]	158 nM	102 nM	–	420 nM	–
O=C(Nc1ccc(-c2nc(N3CCOCC3)c3cnn(C4CCNCC4)c3n2)cc1)NC1CC1 [Compound 776, 1-cyclopropyl-3-[4-(4-morpholin-4-yl-1-piperidin-4-yl-1H-pyrazolo[3,4-d]pyrimidin-6-yl)phenyl]urea]	442 nM	1100 nM	–	1100 nM	–
Oc1cccc(-c2nc(N3CCCOCC3)c3cnn(-c4ccccc4)c3n2)c1 [Compound 962, 3-[4-(1,4-oxazepan-4-yl)-1-phenyl-1H-pyrazolo[3,4-d]pyrimidin-6-yl]phenol]	1090 nM	6000 nM	–	12000 nM	–
CN(C)C(=O)N1CCC(n2ncc3c(N4CCOCC4)nc(-c4ccc5[nH]ccc5c4)nc32)CC1 [Compound 95]	2460 nM	700 nM	–	2100 nM	–
CCOC(=O)N1CCC(n2ncc3c(N4CCOCC4)nc(-c4ccc(NC(=O)Nc5ccccc5)cc4)nc32)CC1 [Compound 814, ethyl 4-(6-{4-[(anilinocarbonyl)amino]phenyl}-4-morpholin-4-yl-1H-pyrazolo[3,4-d]pyrimidin-1-yl)piperidine-1-carboxylate]	34 nM	< 27 nM	–	< 27 nM	–
CCOC(=O)N1CCC(n2ncc3c(N4CCOC[C@@H]4C)nc(-c4ccc(NC(=O)NCCF)cc4)nc32)CC1 [Compound 895, ethyl 4-{6-(4-{[(2-fluoroethyl)carbamoyl]amino}phenyl)-4-[(3S)-3-methylmorpholin-4-yl]-1H-pyrazolo[3,4-d]pyrimidin-1-yl}piperidine-1-carboxylate]	521 nM	100 nM	–	950 nM	–
CNC(=NC#N)Nc1ccc(-c2nc(N3CCOCC3)c3cnn(C4CCN(C(=O)c5cccnc5)CC4)c3n2)cc1 [Example 412, 2-cyano-1-methyl-3-(4-{4-morpholin-4-yl-1-[1-(pyridin-3-ylcarbonyl)piperidin-4-yl]-1H-pyrazolo[3,4-d]pyrimidin-6-yl}phenyl)guanidine]	382 nM	3000 nM	–	6000 nM	–
O=C(Nc1ccncc1)Nc1ccc(-c2nc(N3CCOCC3)c3cnn(C4CCN(Cc5cccnc5)CC4)c3n2)cc1 [Compound 587, 1-(4-{4-morpholin-4-yl-1-[1-(pyridin-3-ylmethyl)piperidin-4-yl]-1H-pyrazolo[3,4-d]pyrimidin-6-yl}phenyl)-3-pyridin-4-ylurea]	12 nM	28 nM	–	120 nM	–
O=C(Nc1ccc(-c2nc(N3CCOCC3)c3cnn(C4CCN(C(=O)c5cccnc5)CC4)c3n2)cc1)Nc1ccccn1 [Compound 592, 1-(4-{4-morpholin-4-yl-1-[1-(pyridin-3-ylcarbonyl)piperidin-4-yl]-1H-pyrazolo[3,4-d]pyrimidin-6-yl}phenyl)-3-pyridin-2-ylurea]	260 nM	95 nM	–	700 nM	–
O=C(Nc1ccccc1)Nc1ccc(-c2nc(N3CCOCC3)c3cnn(C4CCNCC4)c3n2)cc1 [Compound 777, 1-[4-(4-morpholin-4-yl-1-piperidin-4-yl-1H-pyrazolo[3,4-d]pyrimidin-6-yl)phenyl]-3-phenylurea]	19 nM	130 nM	–	140 nM	–
COC(=O)Nc1ccc(-c2nc(N3CCOCC3)c3cnn(C4CCN(Cc5ccccc5Cl)CC4)c3n2)cc1 [Compound 455, methyl (4-{1-[1-(2-chlorobenzyl)piperidin-4-yl]-4-morpholin-4-yl-1H-pyrazolo[3,4-d]pyrimidin-6-yl}phenyl)carbamate]	786 nM	2500 nM	–	5200 nM	–

Further compounds by falling IC50 (PI3K), results first:

IC50 (PI3K)	IC50 (prostate line LNCap; Homo sapiens, LNCaP, 72 h)	IC50 (prostate line LNCap)	SMILES	IC50 (breast line MDA468; Homo sapiens, 72 h)	IC50 (breast line MDA468)
8000 nM	2000 nM	–	CN/C(=N\c1ccc(-c2nc(N3CCOCC3)c3cnn(C4CCN(C(=O)OC(C)C)CC4)c3n2)cc1)SC [Compound 832, isopropyl 4-[6-(4-{[(1E)-(methylamino)(methylthio)methylene]amino}phenyl)-4-morpholin-4-yl-1H-pyrazolo[3,4-d]pyrimidin-1-yl]piperidine-1-carboxylate]	3700 nM	–
2880 nM	4000 nM	–	FC(F)(F)CN1CCC(n2ncc3c(N4CCOCC4)nc(-c4ccc5[nH]ccc5c4)nc32)CC1 [Compound 471, 6-(1H-indol-5-yl)-4-morpholin-4-yl-1-[1-(2,2,2-trifluoroethyl)piperidin-4-yl]-1H-pyrazolo[3,4-d]pyrimidine]	7800 nM	–
1440 nM	8800 nM	–	COc1cccc(-c2nc(N3CCOCC3)c3cnn(C4CCN(Cc5ccccc5)CC4)c3n2)c1 [Example 32]	10000 nM	–
1280 nM	750 nM	–	O=C(c1ccc(Cl)nc1)N1CCC(n2ncc3c(N4CCOCC4)nc(-c4ccc5[nH]ccc5c4)nc32)CC1 [Example 196, 1-{1-[(6-chloropyridin-3-yl)carbonyl]piperidin-4-yl}-6-(1H-indol-5-yl)-4-morpholin-4-yl-1H-pyrazolo[3,4-d]pyrimidine]	3000 nM	–
1060 nM	950 nM	–	C=CC(=O)N1CCC(n2ncc3c(N4CCOCC4)nc(-c4ccc5[nH]ccc5c4)nc32)CC1 [Compound 194]	3000 nM	–
725 nM	900 nM	–	COC(=O)Nc1ccc(-c2nc(N3CCOCC3)c3cnn(C4CCN(C(=O)N5CCN(C)CC5)CC4)c3n2)cc1 [Compound 448, methyl [4-(1-{1-[(4-methylpiperazin-1-yl)carbonyl]piperidin-4-yl}-4-morpholin-4-yl-1H-pyrazolo[3,4-d]pyrimidin-6-yl)phenyl]carbamate]	1700 nM	–
593 nM	2200 nM	–	COC(=NC#N)Nc1ccc(-c2nc(N3CCOCC3)c3cnn(C4CCN(Cc5cccnc5)CC4)c3n2)cc1 [Example 410, methyl N′-cyano-N-(4-{4-morpholin-4-yl-1-[1-(pyridin-3-ylmethyl)piperidin-4-yl]-1H-pyrazolo[3,4-d]pyrimidin-6-yl}phenyl)imidocarbamate]	1300 nM	–
462 nM	1100 nM	–	Clc1ncccc1CN1CCC(n2ncc3c(N4CCOCC4)nc(-c4ccc5[nH]ccc5c4)nc32)CC1 [Compound 175]	2000 nM	–
364 nM	420 nM	–	CNC(=O)Nc1ccc(-c2nc(N3CCOCC3)c3cnn(C4CCN(Cc5cccnc5)CC4)c3n2)cc1Cl [Compound 730, 1-(2-chloro-4-{4-morpholin-4-yl-1-[1-(pyridin-3-ylmethyl)piperidin-4-yl]-1H-pyrazolo[3,4-d]pyrimidin-6-yl}phenyl)-3-methylurea]	1800 nM	–
332 nM	3500 nM	–	CS(=O)(=O)Nc1ccc(-c2nc(N3CCOCC3)c3cnn(-c4ccccc4)c3n2)cc1 [Compound 99]	5000 nM	–
246 nM	27 nM	–	CNC(=O)Nc1ccc(-c2nc(N3CCOCC3)c3cnn(C4CCN(Cc5cccnc5)CC4)c3n2)cc1F [Example 350, 1-(2-fluoro-4-{4-morpholin-4-yl-1-[1-(pyridin-3-ylmethyl)piperidin-4-yl]-1H-pyrazolo[3,4-d]pyrimidin-6-yl}phenyl)-3-methylurea]	200 nM	–
231 nM	320 nM	–	CNC(=O)Nc1ccc(-c2nc(N3CCOCC3)c3cnn(C4CCN(C(=O)c5cnccc5C)CC4)c3n2)cc1 [Example 419, 1-methyl-3-[4-(1-{1-[(4-methylpyridin-3-yl)carbonyl]piperidin-4-yl}-4-morpholin-4-yl-1H-pyrazolo[3,4-d]pyrimidin-6-yl)phenyl]urea]	400 nM	–
153 nM	–	110 nM	CNC(=O)Nc1ccc(-c2nc(N3CCOCC3)c3cnn(C4CCN(Cc5cncc(F)c5)CC4)c3n2)cc1 [Compound 637, 1-[4-(1-{1-[(5-fluoropyridin-3-yl)methyl]piperidin-4-yl}-4-morpholin-4-yl-1H-pyrazolo[3,4-d]pyrimidin-6-yl)phenyl]-3-methylurea]	–	550 nM
148 nM	–	150 nM	CNC(=O)Nc1ccc(-c2nc(N3CCOCC3)c3cnn(C4CCN(C(=O)C(C)C)CC4)c3n2)cc1 [Compound 719, 1-{4-[1-(1-isobutyrylpiperidin-4-yl)-4-morpholin-4-yl-1H-pyrazolo[3,4-d]pyrimidin-6-yl]phenyl}-3-methylurea]	–	250 nM
134 nM	1500 nM	–	O=C(CCO)Nc1ccc(-c2nc(N3CCOCC3)c3cnn(-c4ccccc4)c3n2)cc1 [Compound 139]	60000 nM	–
91 nM	330 nM	–	O=C(Nc1ccc(-c2nc(N3CCOCC3)c3cnn(C4CCN(Cc5cccnc5)CC4)c3n2)cc1)Nc1ccccn1 [Example 341, 1-(4-{4-morpholin-4-yl-1-[1-(pyridin-3-ylmethyl)piperidin-4-yl]-1H-pyrazolo[3,4-d]pyrimidin-6-yl}phenyl)-3-pyridin-2-ylurea]	1800 nM	–
